Experimental findings from patent US12643912B2, “Macrocyclic compounds, a process for their preparation and pharmaceutical compositions containing them” (LES LABORATOIRES SERVIER, priority 2020, dated 2026) are described below.

The target of test [1] is T1, Keap1 (A321-C624) (h) (Homo sapiens, UniProt Q14145).
T1 construct: His-Thromb-KEAP1(A321-C624) acquired from Novalix (batch PU-P01) was immobilized covalently by amine coupling; His tag (N); thrombin cleavage site (Thromb) (N); purchased Novalix batch PU-P01
Description: Surface Plasmon Resonance binding assay to Kelch domain of KEAP1. As to conditions: Biacore T200, 25° C., immobilized His-Thromb-KEAP1(A321-C624), single cycle kinetics, KD=kd/ka from 1:1 fit; read-out: Keap1 (A321-C624) (h) direct/SPR (KD). A digest of the protocol: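 His-Thromb-KEAP1(A321-C624) amine-coupled on CM5 chip to 1250 RU; amine blank reference. Run at 25° C in HEPES pH 7.4, 150 mM NaCl, 3 mM EDTA, 1 mM TCEP, 0.05% P20, 5% DMSO; 180 s association, 720 s dissociation, 50 μL/min. KD = kd/ka from 1:1 kinetic fit, double-referenced, DMSO solvent-corrected.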

Test [2] relates to Nrf2 (Keap1-NRF2 nuclear translocation). Description: U2OS translocation assay (PathHunter U2OS Keap1-NRF2 Nuclear Translocation Cell Line). It counts as cell-based. A digest of the protocol: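 Enzyme-fragment complementation read-out: luminescence after 60 min of detection reagent at room temperature, following a 3 h, 37° C compound exposure of engineered U2OS Keap1-NRF2 translocation cells (1% FBS medium). Signal scaled from 1% DMSO basal to 10 μM andrographolide maximum.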

Setting [3] is: Homo sapiens, U2OS, 3 h, read-out: CELLULAR U2OS EC50 (nM), U2OS Keap1-NRF2 nuclear translocation cells, 3 h incubation, luminescence, normalized between 1% DMSO and 10 μM andrographolide.

Read-outs that look alike come from different tables or passages of the source.

T1 sequence (Q14145 321-624): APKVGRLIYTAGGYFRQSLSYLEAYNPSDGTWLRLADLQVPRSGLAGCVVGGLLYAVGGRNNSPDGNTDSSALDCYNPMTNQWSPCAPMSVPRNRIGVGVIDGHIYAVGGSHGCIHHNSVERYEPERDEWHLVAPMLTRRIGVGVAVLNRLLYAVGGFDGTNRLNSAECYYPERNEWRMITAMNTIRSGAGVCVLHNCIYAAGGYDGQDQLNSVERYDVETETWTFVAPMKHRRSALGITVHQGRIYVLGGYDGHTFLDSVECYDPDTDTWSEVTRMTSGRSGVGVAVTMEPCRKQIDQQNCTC

The term EC50 denotes the concentration needed to bring the measured effect to its halfway point. As to `Cc1ccc2cc1CN1Cc3cc(ccc3OS1(=O)=O)OCCCCCOc1cc(c(C)c3nnn(C)c13)C2CC(=O)O` (single isomer, unassigned) [Example 73b, [4,10,14-Trimethyl-29,29-dioxo-17,23,28-trioxa-29λ^6-thia-1,12,13,14-tetraazahexacyclo[22.5.3.1^3,70.1^9,160.0^11,150.0^27,31]tetratriaconta-3(34),4,6,9(33),10,12,15,24,26,31-decaen-8-yl]acetic acid], the Kd in test [1] was 17.6 nM. The EC50 in test [2] (read-out: CELLULAR U2OS EC50, U2OS Keap1-NRF2 nuclear translocation cells, 3 h incubation, luminescence, normalized between 1% DMSO and 10 μM andrographolide) stood at 707 nM.

For `Cc1ccc2cc1[C@@H](C)N1Cc3cc(ccc3OS1(=O)=O)OCCCCn1nnc3c(C)c(ccc31)[C@@H]2CC(=O)O` [Example 3a, [(2R,8R)-2,4,31-Trimethyl-27,27-dioxo-21,26-dioxa-27λ^6-thia-1,14,15,16-tetraazahexacyclo[20.5.3.1^3,70.1^9,130.0^12,160.0^25,29]dotriaconta-3(32),4,6,9(31),10,12,14,22,24,29-decaen-8-yl]acetic acid], the Kd in test [1] turned out to be 7.64 nM. Besides, the concentration giving a half-maximal response (EC50) in test [2] (setting [3]) worked out at 79.5 nM.

In the case of `Cc1ccc2cc1[C@@H](C)N1Cc3cc(ccc3OS1(=O)=O)OCCCCn1nnc3c(C)c(ccc31)[C@H]2CC(=O)O` [Example 3b, [(2R,8S)-2,4,31-trimethyl-27,27-dioxo-21,26-dioxa-27λ^6-thia-1,14,15,16-tetraazahexacyclo[20.5.3.1^3,70.1^9,130.0^12,160.0^25,29]dotriaconta-3(32),4,6,9(31),10,12,14,22,24,29-decaen-8-yl]acetic acid], in test [1], the Kd was 1.05 nM. Moreover, the EC50 in test [2] (setting [3]) turned out to be 10.6 nM.

As to `Cc1c2ccc3c1nnn3CCCCOc1ccc3c(c1)CN(Cc1cc(F)cc(c1)C2CC(=O)O)S(=O)(=O)O3` (stereo not shown) [Example 4, [5-Fluoro-31-methyl-27,27-dioxo-21,26-dioxa-27λ^6-thia-1,14,15,16-tetraazahexacyclo[20.5.3.1^3,70.1^9,130.0^12,160.0^25,29]dotriaconta-3(32),4,6,9(31),10,12,14,22,24,29-decaen-8-yl]acetic acid], the Kd in test [1] is 255 nM. Besides, the EC50 in test [2] (setting [3]) amounted to 3470 nM.

Turning to `Cc1cc2cc(c1)C(CC(=O)O)c1ccc3c(nnn3CCCCOc3ccc4c(c3)CN(C2)S(=O)(=O)O4)c1C` (stereo not shown) [Example 5, [5,31-Dimethyl-27,27-dioxo-21,26-dioxa-27λ^6-thia-1,14,15,16-tetraazahexacyclo[20.5.3.1^3,70.1^9,130.0^12,160.0^25,29]dotriaconta-3(32),4,6,9(31),10,12,14,22,24,29-decaen-8-yl]acetic acid], the Kd in test [1] was 131 nM. Further, the EC50 in test [2] (setting [3]) was determined as 1810 nM.

As to `Cc1c2ccc3c1nnn3CCCCOc1ccc3c(c1)CN(Cc1cccc(c1)C2CC(=O)O)S(=O)(=O)O3` (stereo not shown) [Example 6, [31-Methyl-27,27-dioxo-21,26-dioxa-27λ^6-thia-1,14,15,16-tetraazahexacyclo[20.5.3.1^3,70.1^9,130.0^12,160.0^25,29]dotriaconta-3(32),4,6,9(31),10,12,14,22,24,29-decaen-8-yl]acetic acid], the Kd in test [1] was 33.7 nM. Also, the EC50 in test [2] (setting [3]) was 1330 nM.

Regarding `Cc1ccc2cc1CN1Cc3cc(ccc3OS1(=O)=O)OCCCCn1nnc3c(C)c(ccc31)[C@H]2CC(=O)O` [Example 7a, [(8S)-4,31-Dimethyl-27,27-dioxo-21,26-dioxa-27λ^6-thia-1,14,15,16-tetraazahexacyclo[20.5.3.1^3,70.1^9,130.0^12,160.0^25,29]dotriaconta-3(32),4,6,9(31),10,12,14,22,24,29-decaen-8-yl]acetic acid], in test [1], the Kd was found to be 1.07 nM. The EC50 in test [2] (setting [3]) stood at 23 nM.

Regarding `Cc1ccc2cc1CN1Cc3cc(ccc3OS1(=O)=O)OCCCCn1nnc3c(C)c(ccc31)[C@@H]2CC(=O)O` [Example 7b, [(8R)-4,31-dimethyl-27,27-dioxo-21,26-dioxa-27λ^6-thia-1,14,15,16-tetraazahexacyclo[20.5.3.1^3,70.1^9,130.0^12,160.0^25,29]dotriaconta-3(32),4,6,9(31),10,12,14,22,24,29-decaen-8-yl]acetic acid], in test [1], the Kd worked out at 4.86 nM. For the same molecule, in test [2] (setting [3]), the EC50 was determined as 290 nM.

As to `Cc1c2ccc3c1nnn3CCCCOc1ccc3c(c1)CN(Cc1cc(ccc1F)C2CC(=O)O)S(=O)(=O)O3` (stereo not shown) [Example 14, [4-Fluoro-31-methyl-27,27-dioxo-21,26-dioxa-27λ^6-thia-1,14,15,16-tetraazahexacyclo[20.5.3.1^3,70.1^9,130.0^12,160.0^25,29]dotriaconta-3(32),4,6,9(31),10,12,14,22,24,29-decaen-8-yl]acetic acid], in test [1], the Kd came out at 14.2 nM. The EC50 in test [2] (setting [3]) stood at 582 nM.

Turning to `Cc1ccc2cc1[C@@H](C)N1Cc3cc(ccc3OS1(=O)=O)OCCCCCCn1nnc3c(C)c(ccc31)[C@@H]2CC(=O)O` [Example 19a, [(2R,8R)-2,4,33-Trimethyl-29,29-dioxo-23,28-dioxa-29λ^6-thia-1,14,15,16-tetraazahexacyclo[22.5.3.1^3,70.1^9,130.0^12,160.0^27,31]tetratriaconta-3(34),4,6,9(33),10,12,14,24,26,31-decaen-8-yl]acetic acid], in test [1], the Kd was 1.34 nM. Also, in test [2] (setting [3]), the EC50 turned out to be 73.6 nM.

Turning to `Cc1ccc2cc1[C@@H](C)N1Cc3cc(ccc3OS1(=O)=O)OCCCCCCn1nnc3c(C)c(ccc31)[C@H]2CC(=O)O` [Example 19b, [(2R,8S)-2,4,33-trimethyl-29,29-dioxo-23,28-dioxa-29λ^6-thia-1,14,15,16-tetraazahexacyclo[22.5.3.1^3,70.1^9,130.0^12,160.0^27,31]tetratriaconta-3(34),4,6,9(33),10,12,14,24,26,31-decaen-8-yl]acetic acid], in test [1], the Kd was found to be 0.646 nM. Moreover, in test [2] (setting [3]), the EC50 was determined as 2.76 nM.

As for `Cc1ccc2cc1[C@@H](C)N1Cc3cc(ccc3OS1(=O)=O)OCCCCCn1nnc3c(C)c(ccc31)[C@H]2CC(=O)O` [Example 20a, [(2R,8S)-2,4,32-Trimethyl-28,28-dioxo-22,27-dioxa-28λ^6-thia-1,14,15,16-tetraazahexacyclo[21.5.3.1^3,70.1^9,130.0^12,160.0^26,30]tritriaconta-3(33),4,6,9(32),10,12,14,23,25,30-decaen-8-yl]acetic acid], the Kd in test [1] was determined as 0.549 nM. Besides, in test [2] (setting [3]), the EC50 was 1.99 nM.

Take `Cc1ccc2cc1[C@@H](C)N1Cc3cc(ccc3OS1(=O)=O)OCCCCCn1nnc3c(C)c(ccc31)[C@@H]2CC(=O)O` [Example 20b, [(2R,8R)-2,4,32-trimethyl-28,28-dioxo-22,27-dioxa-28λ^6-thia-1,14,15,16-tetraazahexacyclo[21.5.3.1^3,70.1^9,130.0^12,160.0^26,30]tritriaconta-3(33),4,6,9(32),10,12,14,23,25,30-decaen-8-yl]acetic acid]: the Kd in test [1] came out at 2.3 nM. Moreover, the EC50 in test [2] (setting [3]) amounted to 131 nM.

Take `Cc1ccc2cc1[C@@H](C)N1Cc3cc(ccc3OS1(=O)=O)OCCCN(C)CCn1nnc3c(C)c(ccc31)[C@H]2CC(=O)O` [Example 21a, [(2R,8S)-2,4,19,33-Tetramethyl-29,29-dioxo-23,28-dioxa-29λ^6-thia-1,14,15,16,19-pentaazahexacyclo[22.5.3.1^3,70.1^9,130.0^12,160.0^27,31]tetratriaconta-3(34),4,6,9(33),10,12,14,24,26,31-decaen-8-yl]acetic acid]: the Kd in test [1] worked out at 2.55 nM. The EC50 in test [2] (setting [3]) was 10.9 nM.
